# Test results published in publication PMC8176454, “Synthesis and Assessment of Novel Probes for Imaging Tau Pathology in Transgenic Mouse and Rat Models” (ACS Chemical Neuroscience, 2021).
# pKd: −log10 of the molar value.
# Columns and labels:
# [1] = target: tau fibrils; parameters: method as in PMID 28087578; details: read-out: Kd, previously reported value; cited from earlier work
# [2] = system: 3R tau151-391 aggregates in cortical sections from SHR24 rats; assay: Binding to SHR24 transgenic rat brain sections; details: SHR24 (3R) vs SHR72 (4R) brain tissue
# Excerpt: (§1) Since future PET studies for development of these compounds would require kinetic modeling for their assessment in vivo, we tested their performance in tau transgenic rats. Rat brains and blood volumes are about 6- and 10-fold larger, respectively, than those of mice and thus enable higher resolution imaging and ample volume for repeated blood sampling. We used two transgenic rat lines expressing human-truncated tau comprising the proline-rich region and either three microtubule binding domains (3R tau151-391, SH24)[28] or four microtubule binding domains (4R tau151-391, SHR72).[29] […] However, compared to the SHR24 rat brain sections, there were less inclusions detected, which seems to indicate the compounds have preferential binding toward the three repeat forms of tau in these rat models.
# (§2) Fresh frozen rat brain coronal sections (10 μm) were stored on slides at −80 °C until use. Sections were fixed in ice cold acetone for 10 min and air-dried and then rehydrated twice for 5 min with buffer (10 mM PBS with 0.1% Triton X-100) before application of 5% bovine serum albumin for 1 h and two more 5 min buffer washes. Primary monoclonal antibody AT8 (Thermo MN1020, 1:1000) was added overnight at 4 °C, followed by 1 h incubation with a mixture of secondary AlexaFluor555 goat anti-mouse antibody (1:1000) and 50 μM PBB3 or LM229 in 50:50 ethanol/buffer. Following two 5 min washes in buffer, the slides were air-dried and cover-slipped using Fluorsave before analysis. The green autofluorescence of PBB3 and LM229 was visualized using a 488 nm filter and fluorescence of AT8 using a 568 nm filter on a Leica DM6000 microscope.
# [3] = target: T1, 3R tau151-391 aggregates in cortical sections from SHR24 rats (Homo sapiens, UniProt P10636); assay: Binding to SHR24 transgenic rat brain sections; details: 50 μM, colocalization with AT8
# T1 construct: tissue AXON Neuroscience; host or cells: brain (cortex) sections of SHR24 transgenic rats
# T1 sequence (P10636 151-360 isoform P10636-5): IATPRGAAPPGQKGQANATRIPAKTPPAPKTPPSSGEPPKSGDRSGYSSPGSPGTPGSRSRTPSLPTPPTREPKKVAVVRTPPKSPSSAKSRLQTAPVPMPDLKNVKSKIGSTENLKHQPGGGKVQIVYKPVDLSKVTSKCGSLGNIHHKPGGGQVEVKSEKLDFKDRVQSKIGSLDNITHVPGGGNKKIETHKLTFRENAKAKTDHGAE
# Excerpt: as §1, §2
# [4] = target: T2, tau aggregates in brain of P301S tau mice (Homo sapiens, UniProt P10636, P618S); assay: Ex vivo mouse study: i.v. injection, brain sections imaged after 1 h; assay type: in vivo; details: i.v. injection 1 h prior, colocalization with AT8
# T2 construct: from tissue; host or cells: brain of transgenic P301S tau mice (C57Bl/6 background)
# T2 sequence (P10636 1-383 isoform P10636-6 P243S): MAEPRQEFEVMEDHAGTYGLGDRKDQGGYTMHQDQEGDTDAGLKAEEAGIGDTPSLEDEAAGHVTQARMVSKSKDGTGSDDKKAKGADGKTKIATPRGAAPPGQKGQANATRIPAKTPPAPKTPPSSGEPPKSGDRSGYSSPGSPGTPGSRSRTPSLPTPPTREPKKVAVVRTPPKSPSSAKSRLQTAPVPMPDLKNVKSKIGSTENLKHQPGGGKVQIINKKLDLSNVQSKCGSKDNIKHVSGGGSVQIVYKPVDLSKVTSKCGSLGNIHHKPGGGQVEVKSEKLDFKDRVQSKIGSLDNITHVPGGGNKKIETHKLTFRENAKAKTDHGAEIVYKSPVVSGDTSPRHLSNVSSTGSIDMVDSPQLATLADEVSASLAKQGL
# Experimental: We next looked at the ability of LM229 to cross the blood–brain barrier (BBB), a key property of any viable neuro-radiotracer. LM229 was injected intravenously (i.v.) (1 mg/kg weight), and after 1 h, WT and P301S tau mice were perfused-fixed and brain sections were imaged under a fluorescence microscope. […] However, we await a comparison of PBB3 and LM229 by PET imaging to determine their relativity properties as in vivo imaging probes.
# Mice were injected intravenously (i.v.) with 50 μM LM229 or PBB3 (DMSO) diluted in 50:50 ethanol/PBS. Animals were then perfused (4% PFA) 1 h post-i.v.
# [5] = target: T3, 4R tau151-391 aggregates in brainstem sections from SHR72 rats (Homo sapiens, UniProt P10636); assay: Binding to SHR72 transgenic rat brain sections; details: 50 μM, colocalization with AT8
# T3 construct: tissue AXON Neuroscience; host or cells: brain (brainstem) sections of SHR72 transgenic rats
# T3 sequence (P10636 468-708): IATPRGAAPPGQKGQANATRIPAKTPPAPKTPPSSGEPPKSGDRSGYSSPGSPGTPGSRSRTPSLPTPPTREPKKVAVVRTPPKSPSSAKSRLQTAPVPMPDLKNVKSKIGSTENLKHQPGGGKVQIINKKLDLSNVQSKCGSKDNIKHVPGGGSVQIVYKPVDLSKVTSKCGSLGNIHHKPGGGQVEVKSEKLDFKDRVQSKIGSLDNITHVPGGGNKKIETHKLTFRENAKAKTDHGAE
# Excerpt: as §1
# Fresh frozen rat brain coronal sections (10 μm) were stored on slides at −80 °C until use. Sections were fixed in ice cold acetone for 10 min and air-dried and then rehydrated twice for 5 min with buffer (10 mM PBS with 0.1% Triton X-100) before application of 5% bovine serum albumin for 1 h and two more 5 min buffer washes. […] The green autofluorescence of PBB3 and LM229 was visualized using a 488 nm filter and fluorescence of AT8 using a 568 nm filter on a Leica DM6000 microscope.
# [6] = system: tau aggregates in DRG neurons from P301S tau mice; assay: Fluorescence binding to cultured DRG neurons from P301S tau transgenic mice; assay type: cell-based, mouse; details: IC50 could not be derived because of low affinity
# Experimental: P301S tau mice with aggregated tau in the brain also express aggregated tau in DRG neurons.[24]−[26] […] To estimate the apparent affinity of LM229 to tau aggregates directly in living neurons, we imaged live neurons after 20 min incubation with various concentrations of LM229 (Figure 4A). […] LM229 binding was specific to neurons with aggregated tau, as detected with the AT100 antibody[18],[22],[23],[26] (Figure 4D). […] Although PBB3 also bound to DRG neurons with tau aggregates at 30–100 μM, it was not possible to derive an IC50 value because of its low affinity in this assay (Supporting Information, Figure S2). […] The shift from nanomolar to micromolar affinity between binding to heparin tau fibrils and tau aggregates in P301S tau neurons may reflect the different environment and assay conditions or the different conformations that tau aggregates assume in neurons compared to heparin–tau complexes.[27]
# Neurons were prepared from phenotypic end stage 5–7 month old P301S tau mice and cultured as described previously.[24] For live staining, neurons cultured for 2 days were washed in PBS and incubated with various concentrations of LM229 for 20 min at room temperature. After three washes in PBS, neurons were imaged on a Leica DMI 4000B microscope using a DFC3000 G camera and application suite 4.0.0.11706. The dead cell stain Propidium iodide (1 μg/mL) was added to ensure that only live cells were imaged. Phase contrast images were taken to show viable neurons. For fixed cell staining, neurons were fixed for 20 min at room temperature in 4% paraformaldehyde, washed in PBS, and permeabilized in PBS containing 0.3% Triton X-100. LM299 was added as described for live cells, and cells were probed with AT100 (1:1000, MN1060) followed by anti-mouse AlexaFluor568 secondary antibody. Cultures were co-stained with the nuclear dye DAPI (blue) to reveal total cells. […]
# (§3) Binding to cultured neurons from P301S tau transgenic mice
# DRG were incubated with the indicated concentrations of LM229 or PBB3 for 20 minutes at room temperature, washed 3 times in PBS, and imaged on a Leica DMI 4000B microscope using a Leica DFC3000 G camera and the Leica application suite 4.0.0.11706. Fluorescence intensity was measured in 10-16 neurons each from 3 independent cultures using Image J (imagej.nih.gov/ij/). Results shown are mean ± SD. Non linear least squares curve fitting was applied using http://faculty.gvsu.edu/carlsont/232lab/nonlin2.html. No Km value was […]
# Figure S2: Binding of LM229 and PBB3 to DRG neurons with tau aggregates […]
# (1 picture or pasted object on this page, not shown here)
# [7] = target: T4, heparin-induced synthetic recombinant tau fibrils (tau-441 human) (Homo sapiens, UniProt P10636); assay: Fluorescence quenching assay of compound binding to heparin-induced synthetic recombinant tau fibrils; details: read-out: Kd of compound binding to heparin-induced synthetic tau fibrils determined by fluorimetry
# T4 construct: purchased Eurogentec
# T4 sequence (P10636 1-441 isoform P10636-8): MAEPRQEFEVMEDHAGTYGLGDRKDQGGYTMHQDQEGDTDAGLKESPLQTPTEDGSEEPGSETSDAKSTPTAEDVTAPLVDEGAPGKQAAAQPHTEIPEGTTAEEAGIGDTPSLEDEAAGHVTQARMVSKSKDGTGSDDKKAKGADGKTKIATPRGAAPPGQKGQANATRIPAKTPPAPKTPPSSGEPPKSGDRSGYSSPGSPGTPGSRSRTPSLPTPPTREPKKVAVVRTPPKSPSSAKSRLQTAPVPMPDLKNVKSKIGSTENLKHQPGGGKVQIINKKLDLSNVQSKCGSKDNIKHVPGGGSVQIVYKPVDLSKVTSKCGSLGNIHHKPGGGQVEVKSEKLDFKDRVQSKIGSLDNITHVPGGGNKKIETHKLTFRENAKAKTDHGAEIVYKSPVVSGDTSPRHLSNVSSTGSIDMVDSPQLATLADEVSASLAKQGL
# Experimental: All compounds were assessed for their ability to bind to synthetic recombinant tau fibrils using a fluorescence quenching assay[20] […] Binding affinities for some compounds (141, 164, 166, 169, 171, and 207) could not be assessed with this assay because of negligible changes in fluorescence intensity. […] This compound was then selected for further characterization and development.
# All reagents and solvents were used as supplied or purified using standard procedures as necessary. Analytical separation was conducted on an Ultimate 3000 HPLC system (Thermo Scientific). [^11C]CO2 was produced via the ^14N(p,α) nuclear reaction using GE PETtrace cyclotron applying 16.5 MeV protons onto 0.5% oxygen in nitrogen gas. [^11C]Methyl iodide was synthesized on a GE Medical Systems MeI MicroLab. A F-4500 FL spectrophotometer (Chemical Engineering department, University of Cambridge) was used to do fluorescence scan of all of the compounds mixed with tau fibrils. Excitation wavelength was 365 nm, and emission was scanned from 400 to 600 nm. With parameters, setting excitation slit was 5.0 nm, emission slit was 20.0 nm, PMT voltage was 950 V, and response was 0.5 s.
# Monomeric tau (tau-441 human) lyophilized powder was obtained from Eurogentec. Tau monomers (100 μM) were prepared in 20 mM BES buffer (pH 7.4 with 25 mM NaCl and 2 mM dithiothreitol and incubated at 56 °C for 10 min. After being cooled to room temperature in a water bath, heparin (25 μM) and a protease inhibitor mix were added and incubated at 37 °C for 10 days. […]
# Binding affinity of all compounds with tau fibrils […]
# All other compounds binding affinit ies towards tau fibrils
# were then tested by fluorescent binding assay. […]
# [8] = In vivo PET studies in wild-type and P301S tau mice; parameters: species or system mouse; details: for Maximum brain uptake (%ID/g max): whole brain
# Excerpt: We then performed preliminary in vivo PET studies with [^11C]L229 in both WT and transgenic P310S tau mice. […] Further PET studies are required to fully characterize the in vivo pharmacokinetics of the radiotracer in both mice and rats.
# These studies were regulated under the Animals (Scientific Procedures) Act 1986 Amendment Regulations 2012 following ethical review by the University of Cambridge Animal Welfare and Ethical Review Body (AWERB). The mice were anesthetized with 5% isoflurane, and general anesthesia was maintained using 1.5% isoflurane. The anesthetized mice were placed prone on the bed of a microPET Focus-220 scanner (Concorde Microsystems, Knoxville, TN). Body temperature was maintained at 37 °C using a heating blanket connected to a rectal thermistor probe. Blood oxygen saturation as well as heart rate and breathing rate were monitored and maintained within normal limits using a noninvasive mouseOX pulse-oximeter sensor (Starr Life Science Corp., Oakmont, PA) attached to the thigh. Before the injection of a tracer, a transmission scan was performed with a 68Ge point source for attenuation and scatter correction of 511 keV photons. [^11C]LM229 was injected via the tail vein over 30 s, followed by a 15 s heparin–saline flush. Dynamic data were acquired in list mode for 90 min. Data were subsequently Fourier rebinned in following time frames: 12 × 5 s, 6 × 10 s, 3 × 20 s, 4 × 30 s, 5 × 60 s, 10 × 120 s, 12 × 5 min. Corrections were applied for randoms, dead time, normalization, attenuation, and decay. Fourier rebinning was used to compress the 4D sinograms to 3D before reconstruction with a 2D-filtered back projection with a Hann window cutoff at the Nyquist frequency. The image voxel size was 0.95 × 0.95 × 0.80 mm, with an array size of 128 × 128 × 95.
# Three-dimensional volumes of interest (VOIs) for mice brain MRI template available on PMOD software (version 3.8; PMOD technologies, Zurich, Switzerland) were modified to obtain a whole brain VOI. […] The results were expressed as % injected dose per gram, assuming a specific gravity of 1 g·mL^–1 for brain tissue.
# [9] = system: tau tangles in transgenic mice expressing mutant human P301L tau; parameters: method as in PMID 27030397, PMID 23411393; details: in vitro and microPET in vivo imaging; cited from earlier work
# [10] = system: brainstem of P301S tau mice; parameters: method as in PMID 29930508; details: P301S tau mice vs WT; cited from earlier work
# [11] = target: T5, tau fibrils (Homo sapiens, UniProt P10636); assay: Microscale thermophoresis screen for interaction with tau fibrils; assay type: binding; details: 1 µM and 1 nM compound mixed with 100 nM tau fibrils
# T5 construct: purchased Eurogentec
# T5 sequence (P10636 1-441 isoform P10636-8): as above
# Experimental: buffer) for 1 h at room temperature. Following 3 washes in PBS/0.1% Triton X-100, 50 µM LM229 (diluted in 1:1 blocking buffer/ethanol) was then added for 1 h at room temperature. Nuclei were stained with DAPI (0.1mg/ml for 10 min), washed and tissues mounted in FluorSaveTM prior to analysis using fluorescence […]
# Binding affinity of all compounds with tau fibrils
# Microscale Thermophoresis was first used to screen whether there were interaction between the compounds and tau fibrils. For this procedure 200 µL, 5 µM tau fibrils were mixed with 200 µL, 10 µM NT647-NHS dye and then incubated in dark for 30 minutes. Further dialysis (18 hours, changing the buffer after the first 4 hours) was used to remove the free dye giving a 2.5 µM solution of label led protein. The label ling ratio of dye unit per tau monomer was then tested by a method recommended by the instrument manufacturer, NanoTemper Technologies, which is based on a cal ibration curve. The 2.5 µM tau fibril solution was then aliquoted prior to use. The unused samples were frozen at -20 °C. MST measurements were conducted using Monolith NT.115 instrument (NanoTemper Technologies, Germany) at 25 °C. Assays were conducted at 40 % MST Power and 90 % IR-laser power. With each compound, two concentrations (1µM and 1nM) were used to mix with 100nM tau fibrils and then loaded to the MST instrument to read out the MST data curve. Only three compounds 166, 164 […]
# All other compounds binding affinit ies towards tau fibrils were then tested by fluorescent binding assay.
# as §3
# DRG were incubated with the indicated concentrations of LM229 or PBB3 for 20 minutes at room temperature, washed 3 times in PBS, and imaged on a Leica DMI 4000B microscope using a Leica DFC3000 G camera and the Leica application suite 4.0.0.11706. Fluorescence intensity was measured in 10-16 neurons each from 3 independent cultures using Image J (imagej.nih.gov/ij/). Results shown are mean ± SD. Non linear least squares curve fitting was applied using http://faculty.gvsu.edu/carlsont/232lab/nonlin2.html. […]
structure (smiles),measurement,setting,value
"CNc1ccc(/C=C/C=C/c2nc3ccc(O)cc3s2)cn1 [PBB3, reference compound]",pKd,[1],8.89
same,Preference between 3R and 4R tau inclusions in rat models,[2],preferential binding toward the 3R tau inclusions
same,Binding to pathological aggregated tau in SHR24 rat brain sections,[3],bound with similar properties to pathological aggregated tau
same,Ex vivo binding in P301S tau brain tissue,[4],significant nonspecific binding
same,Binding to tau in SHR72 rat brain sections,[5],bound to tau in brain sections from SHR72 rats
same,Concentration at which binding to DRG neurons with tau aggregates was seen,[6],30 to 100 µM
same,pKd,[7],8.85
[11CH3]Nc1ccc(/C=C/C=C/c2nc3cc(F)c(O)cc3s2)cn1 [[^11C]LM229],Maximum brain uptake (%ID/g max),[8]; P301S mouse,2.38 %ID/g
same,Time of maximum brain uptake,[8]; WT and P301S mice,within the first minute
same,Maximum brain uptake (%ID/g max),[8]; WT mouse,1.56 %ID/g
[18F]c1ccc(-c2ccc3c(c2)[nH]c2ccncc23)cn1 [[^18F]T807],Specific binding to tau tangles in P301L tau mice,[9],no specific binding
same,Difference in retention in brainstem compared to control WT mice,[10],no more than 23%
Oc1ccc2nc(/C=C/C=C/c3ccc(F)nc3)sc2c1 [compound 148],pKd,[7],7.25
Oc1ccc2nc(/C=C/C=C/c3ccc(F)cn3)sc2c1 [compound 152],pKd,[7],6.45
Fc1ccc(/C=C/C=C/c2nc3ccccc3s2)nc1 [compound 164],Change of the MST data curve,[11],no changes
Oc1ccc2sc(/C=C/C=C/c3ccc(F)cn3)nc2c1 [compound 166],Change of the MST data curve,[11],no changes
Fc1ccc(/C=C/C=C/c2nc3ccccc3s2)cn1 [compound 169],Change of the MST data curve,[11],no changes
CNc1ccc(/C=C/C=C/c2nc3cc(F)c(OC)cc3s2)cn1 [compound 225],pKd,[7],8.96
CNc1ccc(/C=C/C=C/c2nc3cc(OCCF)ccc3s2)cn1 [compound 236],pKd,[7],6.34
